Test results taken from BindingDB's records for doi:10.1016/j.bmc.2018.09.008 (Ochanomizu University, 2018).

Assay: Antagonist activity at AR in mouse SC3 cells assessed as inhibition of DHT-induced cell proliferation after 3 days by CCK8 assay

Row | Compound | IC50 [µM]
1 | COc1cccc(C(=O)Nc2ccc(Oc3ccc(O)cc3)c(Br)c2)c1 | 5.7
2 | COc1cccc(C(=O)Nc2ccc(Oc3ccc(O)cc3)c(C(F)(F)F)c2)c1 | 4.3
3 | COc1cccc(C(=O)Nc2ccc(Oc3ccc(O)cc3)c(F)c2F)c1 | 0.53
4 | COc1ccc(C(=O)Nc2cccc(Oc3ccc(O)cc3)c2C)cc1 | > 10
5 | COc1cccc(C(=O)Nc2cc(Cl)c(Oc3ccc(O)cc3)c(Cl)c2)c1 | 0.48
6 | COc1cccc(C(=O)Nc2ccc(Oc3ccc(O)cc3)cc2OC)c1 | 3.4
7 | COc1ccccc1C(=O)Nc1ccc(C)c(Oc2ccc(O)cc2)c1 | 5.3
8 | CN(C)c1cccc(C(=O)Nc2cccc(Oc3cccc(O)c3)c2)c1 | > 10
9 | COc1cccc(C(=O)Nc2ccc(Oc3ccc(O)cc3)cc2Cl)c1 | 1.7
10 | COc1ccc(C(=O)Nc2ccc(C)c(Oc3ccc(O)cc3)c2)cc1 | > 10
11 | COc1ccc(C(=O)Nc2cc(Oc3ccc(O)cc3)ccc2C)cc1 | > 10
12 | COc1cccc(C(=O)Nc2cc(F)c(Oc3ccc(O)cc3)c(F)c2)c1 | 0.51
13 | COc1cccc(C(=O)Nc2ccc(Oc3ccc(O)cc3)cc2C)c1 | 3
14 | COc1cccc(C(=O)Nc2cccc(Oc3cccc(O)c3)c2)c1 | > 10
15 | COc1cccc(C(=O)Nc2ccc(Oc3cccc(O)c3)cc2)c1 | > 10
16 | COc1cccc(C(=O)Nc2ccc(Oc3ccc(O)cc3)c(Cl)c2)c1 | 0.48
17 | COc1ccc(C(=O)Nc2cccc(Oc3ccc(O)cc3)c2)cc1 | > 10
18 | COc1cccc(C(=O)Nc2ccc(Oc3ccc(O)cc3)c(F)c2)c1 | 0.4
19 | CN(C)c1ccccc1C(=O)Nc1cccc(Oc2ccc(O)cc2)c1 | 6.3
20 | COc1cccc(C(=O)N(C)c2ccc(Oc3ccc(O)cc3)c(C)c2)c1 | 7.6
21 | COc1cccc(C(=O)Nc2ccc(Oc3ccc(O)cc3)cc2F)c1 | 0.65
22 | COc1ccccc1C(=O)Nc1cccc(Oc2ccc(O)cc2)c1 | > 10
23 | CN(C)c1ccc(C(=O)Nc2cccc(Oc3ccc(O)cc3)c2)cc1 | 7.4
24 | COc1ccc(C(=O)Nc2cccc(Oc3cccc(O)c3)c2)cc1 | > 10
25 | CN(C)c1ccc(C(=O)Nc2ccc(Oc3cccc(O)c3)cc2)cc1 | 3.2
